This note sets out measurements from US20220031680A1, “Donecopride As Neuroprotective Agent In the Treatment of Neurodegenerative Diseases” (priority 2018, published 2022).

The assay deals with rat primary hippocampal neurons injured with Aβ 1-42. Kind of assay: Number of synapses (PSD95/SYN overlap) in primary hippocampal neurons injured with Aβ1-42. The assay is classed as cell-based. As to conditions: for Number of synapses (% of control): Aβ 1-42 (20 μM) in Table 5, 24 h; for number of synapses normalized by the number of neurons (formation of new synapses): Aβ 1-42 injured hippocampal neurons. The procedure:
The hippocampal neurons were exposed with Aβ solutions (see below) after 17 days of culture. The Aβ1-42 preparation was done following the procedure described by Callizot et al. (2013) J. Neurosci. Res. 91706-716. Briefly, Aβ1-42 peptide was dissolved in the defined culture medium mentioned above, at an initial concentration of 40 μM. This solution was gently agitated for 3 days at 37° C. in the dark and immediately used after being properly diluted in culture medium to the concentrations used (20 μM (plate 1) or 2.5 μM (plate 2) corresponding to 2 μM or 0.25 μM of oligomers (AβO) respectively).
Donecopride fumarate was solved in culture medium and preincubated 1 h before Aβ application. Aβ1-42 preparation was added to a final concentration of 20 or 2.5 μM (=2 μM or 0.25 μM of AβO, evaluated by automatic Western Blot) diluted in control medium in presence of Donecopride.
24 hours after intoxication, the hippocampal neurons were fixed by a cold solution of ethanol (95%) and acetic acid (5%) for 5 min at −20° C. After permeabilization with 0.1% of saponin, cells were incubated for 2 h with:
a) mouse monoclonal antibody anti post synaptic density 95 kDa (PSD95) at a dilution of 1/100 in PBS containing 1% fetal calf serum and 0.1% of saponin.
b) Rabbit polyclonal antibody anti-synaptophysin (SYN) at the dilution of 1/100 in PBS containing 1% fetal calf serum and 0.1% of saponin.
For each condition, 40 pictures per well were taken using ImageXpress (Molecular Devices) with 40× magnification. All images were taken with the same acquisition parameters.
Synapses evaluation was performed automatically by using Custom module editor (Molecular Devices).
The following endpoints were assessed: • Total number of synapses (overlapping between PSD95/SYN).
To assess the formation of synapses, the distribution of PSD-95, a post-synaptic marker, and synaptophysin, a pre-synaptic marker, was studied. A structure positive for both PD-95 and synaptophysin staining was considered as a synapse.
Injury: The hippocampal neurons were exposed with Aβ solutions (see below) after 17 days of culture. The Aβ1-42 preparation was done following the procedure described by Callizot et al. (2013) J. Neurosci. Res. 91:706-716. The batch number of the Aβ1-42 used in this study contains 10% of oligomers (quantification by WB as performed in Combes et al. (2015) J. Neurosci. Res. 93:633-643). Briefly, Aβ1-42 peptide was dissolved in the defined culture medium mentioned above, at an initial concentration of 40 μmol/1. This solution was gently agitated for 3 days at 37° C. in the dark and immediately used after being properly diluted in culture medium to the concentrations used (20 μmol/l or 2.5 μmol/l corresponding to 2 μmol/l or 0.25 μmol/l of oligomers (AβO) respectively). Aβ1-42 preparation was added to a final concentration of 20 or 2.5 μmol/l (respectively 2 μmol/l or 0.25 μmol/l of AβO, determined by automatic WB) diluted in control medium in presence of the compounds.
Immunostaining: PSD95 and SYN—After fixation and permeabilization, cells were incubated for 2 hours with: • mouse monoclonal antibody anti post synaptic density 95 kDa (PSD95) at dilution of 1/200 in PBS containing 1% fetal calf serum and 0.1% saponin; • rabbit polyclonal antibody anti-synaptophysin (SYN) at the dilution of 1/100 in PBS containing 1% fetal calf serum and 0.1% saponin.
For each condition, 40 pictures per well were taken using ImageXpress (Molecular Devices) with 40× magnification. All images were taken with the same conditions. Synapses evaluation were performed automatically by using Custom Module Editor® (Molecular Devices). The following endpoints were assessed: • Number of synapses (overlapping between PSD95/SYN)

Marks after values point to notes of the source that are not given here.

Turning to `COc1cc2c(cc1OC)C(=O)C(CC1CCN(Cc3ccccc3)CC1)C2` (centres unmarked) [Donepezil, reference compound], for the setting “1 μM”, the “Number of synapses (% of control)” value is recorded as 88* % of control. For the same compound, under “Donepezil group (1 μM)”, the “number of synapses normalized by the number of neurons (formation of new synapses)” value was “no effect”.

With `COc1cc(N)c(Cl)cc1C(=O)CCC1CCN(CC2CCCCC2)CC1` [Donecopride], the “Number of synapses (% of control)” value by setting is: (1 nM) 69 % of control; (5 nM) 83* % of control; (10 nM) 87* % of control; (50 nM) 91* % of control; (100 nM) 93* % of control; (500 nM) 94* % of control. Moreover, the “Number of synapses (% of control)” value (1 μM) is reported as 85* % of control. The “number of synapses normalized by the number of neurons (formation of new synapses)” value (500 nM) is listed as “significantly promoted the formation of new synapses”.

Take `COc1cc(N)c(F)cc1C(=O)CCC1CCN(CC2CCCCCC2)CC1` [MR36014]: the “concentration up to which the effect on synapses is significant” value (Aβ1-42 injured hippocampal neurons, Example 5 (FIG. 12)) was at most 50 µM.
